Here are results for four molecules from patent publication US9522910B2, “Protein kinase inhibitors (variants), use thereof in treating oncological diseases and a pharmaceutical composition based thereon” (Obshchestvo s ogranichennoy otvetstvennostyou “Fusion …, priority 2011, dated 2016).

Some results are limits rather than exact numbers.

The conditions of series [1]: in vivo; cited from earlier work.
The subject of a further series is A549 cells. The series can be described thus: Animal model of non-small cell lung cancer (A549 tumors in nude mice). Conditions: 30 mg/kg, oral gavage; end of the therapy (20 days); ratio of mean tumor volume in therapeutic and control groups. In kind it is in vivo, mouse. Here is the method: Male nude mice were used for this experiment. A549 cells (1×10^7) in 0.2 ml of Matrigel (BD Pharmingen) solution were injected in left mice leg upon ketamine-xylazine anesthesia. After a week of cell inoculation mice were separated into control and therapeutic groups. Control group mice received 0.3 ml of 0.5% methylcellulose solution, therapeutic group received 0.3 ml of 0.5% methylcellulose with suspended therapeutic compound (30 mg/kg). Tumor volume (mm^3) was calculated as follows: V=L×W^2×0.5. Compounds were administered using oral gavage. Treatment continued for 20 days. Ratio of the mean tumor volume in therapeutic and control groups (% T/C) was used to evaluate efficacy of tumor growth inhibition upon the end of the therapy (20 days). Obtained data was subjected to statistical reliability Dunnet test. Efficacies of tested compounds in 30 mg/kg dose are depicted in Table 5.

A word on the bioavailability: it is dose-corrected exposure relative to a reference, in per cent. Consider `Cc1cn(-c2cc(NC(=O)c3ccc(C)c(Nc4nccc(-c5cccnc5)n4)c3)cc(C(F)(F)F)c2)cn1` [nilotinib], for which the bioavailability in series [1] is 30%. Take `Cc1nc(Nc2ncc(C(=O)Nc3c(C)cccc3Cl)s2)cc(N2CCN(CCO)CC2)n1` [dasatinib]: the bioavailability in series [1] was 14-34%. In the case of `Cc1ccc(C(=O)Nc2ccc(CN3CCN(C)CC3)c(C(F)(F)F)c2)cc1C#Cc1cnc2cccnn12` [ponatinib], in series [1], the bioavailability was 20%. Regarding `Cc1ccc(C(=O)Nc2ccc(CN3CC[C@@H](N(C)C)C3)c(C(F)(F)F)c2)cc1C#Cn1cnc2ccccc21` [drawing 141], the “% T/C” value in the series on A549 cells is listed as below 40%.
